Measurements: patent EP3807270B1, “NOVEL HETEROARYL HETEROCYCLYL COMPOUNDS FOR THE TREATMENT OF AUTOIMMUNE DISEASE” (F. Hoffmann-La Roche AG, priority 2018, dated 2019)

Target: T1, hERG channel (Homo sapiens, UniProt Q12809)
T1 construct: expressed in transfected cells; host or cells: CHO (Chinese hamster ovary)
Assay: hERG channel inhibition assay (patch-clamp, CHO hERG cells)
Type: cell-based
Details: for IC50 / IC20: CHO hERG cells, whole-cell patch-clamp; for IC20: human, CHO cells stably expressing hERG; for hERG IC20 / TLR8 IC50 / hERG IC20 / TLR7 IC50 / hERG IC20 / TLR9 IC50: safety ratio; for hERG IC20 / TLR7 IC50: TLR7 IC50 of ER compounds from Table 1; for hERG IC20 / TLR9 IC50: TLR9 IC50 of ER compounds from Table 1
Method: The hERG K^+ channels were cloned in humans and stably expressed in a CHO (Chinese hamster ovary) cell line. CHOhERG cells were used for patch-clamp (voltage-clamp, whole-cell) experiments. Cells were stimulated by a voltage pattern to activate hERG channels and conduct IKhERG currents (rapid delayed outward rectifier potassium current of the hERG channel). After the cells were stabilized for a few minutes, the amplitude and kinetics of IKhERG were recorded at a stimulation frequency of 0.1 Hz (6 bpm). Thereafter, the test compound was added to the preparation at increasing concentrations. For each concentration, an attempt was made to reach a steady-state effect, usually, this was achieved within 3-10 min at which time the next highest concentration was applied. The amplitude and kinetics of IKhERG are recorded in each concentration of the drug which were compared to the control values (taken as 100%). (references: Redfern WS, Carlsson L, Davis AS, Lynch WG, MacKenzie I, Palethorpe S, Siegl PK, Strang I, Sullivan AT, Wallis R, Camm AJ, Hammond TG. 2003; Relationships between preclinical cardiac electrophysiology, clinical QT interval prolongation and torsade de pointes for a broad range of drugs: evidence for a provisional safety margin in drug development. Cardiovasc. Res. 58:32-45, Sanguinetti MC, Tristani-Firouzi M. 2006; hERG potassium channels and cardiac arrhythmia. Nature 440:463-469, Webster R, Leishman D, Walker D. 2002; Towards a drug concentration effect relationship for QT prolongation and torsades de pointes. Curr. Opin. Drug Discov. Devel. 5:116-26).
Table 3. hERG and safety ratio results

T1 sequence (Q12809 whole entry): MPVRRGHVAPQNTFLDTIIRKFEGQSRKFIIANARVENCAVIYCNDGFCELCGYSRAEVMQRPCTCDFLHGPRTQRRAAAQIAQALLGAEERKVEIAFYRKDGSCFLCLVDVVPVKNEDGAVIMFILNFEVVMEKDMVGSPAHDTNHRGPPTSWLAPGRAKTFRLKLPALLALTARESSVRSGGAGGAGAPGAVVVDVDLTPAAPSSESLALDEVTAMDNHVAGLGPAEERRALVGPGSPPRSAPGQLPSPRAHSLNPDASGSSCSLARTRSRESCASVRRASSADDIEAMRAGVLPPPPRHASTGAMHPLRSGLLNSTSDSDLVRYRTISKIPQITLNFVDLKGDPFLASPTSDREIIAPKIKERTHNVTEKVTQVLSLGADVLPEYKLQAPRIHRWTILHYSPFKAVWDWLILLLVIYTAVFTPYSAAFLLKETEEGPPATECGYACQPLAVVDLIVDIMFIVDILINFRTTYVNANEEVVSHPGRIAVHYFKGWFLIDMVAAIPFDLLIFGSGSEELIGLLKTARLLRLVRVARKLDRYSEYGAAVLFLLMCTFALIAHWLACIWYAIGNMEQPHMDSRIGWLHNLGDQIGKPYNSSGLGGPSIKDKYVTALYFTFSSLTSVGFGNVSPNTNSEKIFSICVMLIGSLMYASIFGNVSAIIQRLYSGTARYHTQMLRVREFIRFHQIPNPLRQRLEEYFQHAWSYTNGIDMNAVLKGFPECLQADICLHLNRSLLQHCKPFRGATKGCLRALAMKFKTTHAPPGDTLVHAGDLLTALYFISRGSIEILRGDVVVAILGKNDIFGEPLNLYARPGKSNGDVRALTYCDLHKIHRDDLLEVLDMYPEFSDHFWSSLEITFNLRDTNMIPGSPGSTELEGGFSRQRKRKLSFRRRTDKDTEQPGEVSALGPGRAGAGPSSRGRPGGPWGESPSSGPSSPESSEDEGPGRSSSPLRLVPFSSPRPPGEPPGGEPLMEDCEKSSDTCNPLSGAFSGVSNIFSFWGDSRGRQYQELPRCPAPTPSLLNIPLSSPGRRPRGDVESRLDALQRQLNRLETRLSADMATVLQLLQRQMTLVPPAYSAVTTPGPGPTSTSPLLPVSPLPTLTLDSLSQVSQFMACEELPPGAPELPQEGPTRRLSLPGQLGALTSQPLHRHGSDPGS

Question: What does the source list for C[C@@H]1CN(c2ccc(C#N)c3ncccc23)C[C@H](CN2CCN(c3cc4c(cn3)CNCC4)CC2)O1 [Example 19, 5-[(2R,6S)-2-methyl-6-[[4-(5,6,7,8-tetrahydro-2,7-naphthyridin-3-yl)piperazin-1-yl]methyl]morpholin-4-yl]quinoline-8-carbonitrile]?
Answer: IC50: > 20 µM; IC20: > 10 µM; hERG IC20 / TLR8 IC50: >2283.1; hERG IC20 / TLR7 IC50: >1118.6; hERG IC20 / TLR9 IC50: >158.3

Question: With C[C@@H]1CN(c2ccc(C#N)c3ncccc23)C[C@H](CN2CCN(c3cc4c(cn3)CCNC4)CC2)O1 [Example 20, 5-[(2R,6S)-2-methyl-6-[[4-(5,6,7,8-tetrahydro-2,6-naphthyridin-3-yl)piperazin-1-yl]methyl]morpholin-4-yl]quinoline-8-carbonitrile] as the compound, how does the IC50 read?
Answer: Its IC50 is over 20 µM.

Question: And the IC20?
Answer: Its IC20 is over 10 µM.

Question: What about the “hERG IC20 / TLR8 IC50” value of the same compound?
Answer: Its value is over 1666.7.

Question: And the “hERG IC20 / TLR7 IC50” value?
Answer: Its value is over 1298.7.

Question: And the “hERG IC20 / TLR9 IC50” value?
Answer: The value was over 139.1.

Question: What does the source list for C[C@@H]1CN(c2ccc(C#N)c3ncccc23)C[C@H](CN2CCN(c3cnc4c(c3)CNCC4)CC2)O1 [Example 21, 5-[(2R,6S)-2-methyl-6-[[4-(5,6,7,8-tetrahydro-1,6-naphthyridin-3-yl)piperazin-1-yl]methyl]morpholin-4-yl]quinoline-8-carbonitrile]?
Answer: IC50: > 20 µM; IC20: > 10 µM; hERG IC20 / TLR8 IC50: >1098.9; hERG IC20 / TLR7 IC50: >900.9; hERG IC20 / TLR9 IC50: >193.8

Question: Which results are given for C[C@@H]1CN(c2ccc(C#N)c3ncccc23)C[C@H](CN2CCN(c3ccc4c(c3)C(O)CNC4)CC2)O1 (stereo partly drawn) [Example 22, 5-[(2S,6R)-2-[[4-(4-hydroxy-1,2,3,4-tetrahydroisoquinolin-6-yl)piperazin-1-yl]methyl]-6-methyl-morpholin-4-yl]quinoline-8-carbonitrile]?
Answer: IC50: > 20 µM; IC20: > 10 µM; hERG IC20 / TLR8 IC50: >520.8; hERG IC20 / TLR7 IC50: >259.7; hERG IC20 / TLR9 IC50: >222.7

Question: For C[C@@H]1CN(c2ccc(C#N)c3ncccc23)C[C@H](CN2CCN(c3cnc4c(c3)CCNC4)CC2)O1 [Example 23, 5-[(2R,6S)-2-methyl-6-[[4-(5,6,7,8-tetrahydro-1,7-naphthyridin-3-yl)piperazin-1-yl]methyl]morpholin-4-yl]quinoline-8-carbonitrile], which IC50 is on record?
Answer: The IC50 was over 20 µM.

Question: And the IC20?
Answer: The IC20 was over 10 µM.

Question: And the “hERG IC20 / TLR8 IC50” value?
Answer: Its value is over 934.6.

Question: What about the “hERG IC20 / TLR7 IC50” value of the same compound?
Answer: The value was over 170.6.

Question: And the “hERG IC20 / TLR9 IC50” value?
Answer: Its value is over 170.1.

Question: How did the IC50 turn out when C[C@@H]1CN(c2ccc(C#N)c3nccnc23)C[C@H](CN2CCN(c3cnc4c(c3)CNC4)CC2)O1 [Example 25, 8-[(2S,6R)-2-[[4-(6,7-dihydro-5H-pyrrolo[3,4-b]pyridin-3-yl)piperazin-1-yl]methyl]-6-methyl-morpholin-4-yl] quinoxaline-5-carbonitrile] was run?
Answer: The IC50 was over 20 µM.

Question: And the IC20?
Answer: The IC20 was over 10 µM.

Question: What about the “hERG IC20 / TLR8 IC50” value of the same compound?
Answer: The value was over 584.8.

Question: What about the “hERG IC20 / TLR7 IC50” value of the same compound?
Answer: Its value is over 520.8.

Question: What about the “hERG IC20 / TLR9 IC50” value of the same compound?
Answer: The value was over 111.7.

Question: Which IC50 does the source give for C[C@@H]1CN(c2ccc(C#N)c3ncccc23)C[C@H](CN2CCN(c3ccc4c(n3)CNC4)CC2)O1 [Example 30, 5-[(2S,6R)-2-[[4-(6,7-dihydro-5H-pyrrolo[3,4-b]pyridin-2-yl)piperazin-1-yl]methyl]-6-methyl-morpholin-4-yl] quinoline-8-carbonitrile] here?
Answer: The IC50 was over 20 µM.

Question: What about the IC20 of the same compound?
Answer: The IC20 was over 10 µM.

Question: And the “hERG IC20 / TLR8 IC50” value?
Answer: The value was over 1515.2.

Question: What about the “hERG IC20 / TLR7 IC50” value of the same compound?
Answer: The value was over 840.3.

Question: What about the “hERG IC20 / TLR9 IC50” value of the same compound?
Answer: The value was over 246.3.

Question: Which IC50 does the source give for CC1NCc2ncc(N3CCN(C[C@H]4CN(c5ccc(C#N)c6ncccc56)C[C@@H](C)O4)CC3)cc21 (stereo partly drawn) [Example 41, 5-[(2R,6S)-2-methyl-6-[[4-(5-methyl-6,7-dihydro-5H-pyrrolo[3,4-b]pyridin-3-yl)piperazin-1-yl]methyl]morpholin-4-yl]quinoline-8-carbonitrile] here?
Answer: The IC50 was over 20 µM.

Question: And the IC20?
Answer: The IC20 was over 10 µM.

Question: And the “hERG IC20 / TLR8 IC50” value?
Answer: Its value is over 574.7.

Question: And the “hERG IC20 / TLR7 IC50” value?
Answer: Its value is over 354.6.

Question: And the “hERG IC20 / TLR9 IC50” value?
Answer: The value was over 166.7.

Question: With C[C@@H]1CN(c2ccc(C#N)c3ncccc23)C[C@H](CN2CC3(C2)CN(c2cnc4c(n2)CCNC4)CCO3)O1 [Example 50, 5-[(2R,6S)-2-methyl-6-[[8-(5,6,7,8-tetrahydropyrido[3,4-b]pyrazin-2-yl)-5-oxa-2,8-diazaspiro [3.5]nonan-2-yl]methyl]morpholin-4-yl] quinoline-8-carbonitrile] as the compound, how does the IC50 read?
Answer: Its IC50 is over 20 µM.

Question: What about the IC20 of the same compound?
Answer: Its IC20 is over 10 µM.

Question: And the “hERG IC20 / TLR8 IC50” value?
Answer: The value was over 3125.0.

Question: What about the “hERG IC20 / TLR7 IC50” value of the same compound?
Answer: Its value is over 2702.7.

Question: And the “hERG IC20 / TLR9 IC50” value?
Answer: Its value is over 144.9.

Question: Which results are given for C[C@@H]1CN(c2ccc(C#N)c3ncccc23)C[C@H](CN2CCN(c3ccc4c(n3)CNCC4)CC2)O1 [Example 69, 5-[(2R,6S)-2-methyl-6-[[4-(5,6,7,8-tetrahydro-1,7-naphthyridin-2-yl)piperazin-1-yl]methyl]morpholin-4-yl]quinoline-8-carbonitrile]?
Answer: IC50: > 20 µM; IC20: 8.65 µM; hERG IC20 / TLR8 IC50: 1879.8; hERG IC20 / TLR7 IC50: 697.4; hERG IC20 / TLR9 IC50: 104.3

Question: What does the source list for COc1ccc(N2CCN(C[C@H]3CN(c4ccc(C#N)c5ncccc45)C[C@@H](C)O3)CC2)cc1 [Example R1, 5-[(2S,6R)-2-[[4-(4-methoxyphenyl)piperazin-1-yl]methyl]-6-methyl-morpholin-4-yl]quinoline-8-carbonitrile, reference compound]?
Answer: IC50: 2.74 µM; IC20: 0.879 µM; hERG IC20 / TLR8 IC50: 6.2; hERG IC20 / TLR7 IC50: 9.3; hERG IC20 / TLR9 IC50: 0.1

Question: Which results are given for C[C@@H]1CN(c2ccc(C#N)c3ncccc23)C[C@H](CN2CCN(c3ccc(Cl)cc3)CC2)O1 [Example R2, 5-[(2S,6R)-2-[[4-(4-chlorophenyl)piperazin-1-yl]methyl]-6-methyl-morpholin-4-yl]quinoline-8-carbonitrile, reference compound]?
Answer: IC50: 0.77 µM; IC20: 0.28 µM; hERG IC20 / TLR8 IC50: 0.8; hERG IC20 / TLR7 IC50: 1.3; hERG IC20 / TLR9 IC50: 0.04
